In ChEMBL document CHEMBL1201862, “PubChem BioAssay data set” (2004):
Where a name gives a salt, the structure may show the parent alone.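 Each compound was tested at five concentrations against cells in 96-well plates for 48 hours. Abbreviation: GI50, concentration required for 50% inhibition of growth.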 Active and inactive are the calls of the source. Cut-off read from the data, not from the text of the source: active = GI50 up to about 1.1 µM and inactive = higher.

Columns and labels:
Experiment in all cases: NCI tumour cell line growth inhibition, 48 h
[1] = test system: KM12
[2] = test system: SK-OV-3
[3] = test system: SK-MEL-5
[4] = test system: SF-268
[5] = test system: CCRF-CEM
[6] = test system: HL-60
[7] = test system: OVCAR-5
[8] = test system: HOP-92
[9] = test system: NCI-H23
[10] = test system: A549
[11] = test system: SR
[12] = test system: HCT-15
[13] = test system: COLO 205
[14] = test system: MDA-MB-231
[15] = test system: NCI/ADR-RES
[16] = test system: TK-10
[17] = test system: UACC-257
[18] = test system: HCT-116
[19] = test system: 786-0
[20] = test system: A498

Row | Structure (SMILES) | GI50 [1] | GI50 [2] | GI50 [3] | GI50 [4] | GI50 [5] | GI50 [6] | GI50 [7] | GI50 [8] | GI50 [9] | GI50 [10] | GI50 [11] | GI50 [12] [µM] | GI50 [13] | GI50 [14] | GI50 [15] | GI50 [16] | GI50 [17] | GI50 [18] | GI50 [19] | GI50 [20]
1 | C/C(=C\[Si](C)(C)c1ccco1)C(C)(O)[C@H](C)O (stereo partly drawn) | 40.6 µM (inactive) | > 100 µM (inactive) | 40.7 µM (inactive) | 90.2 µM (inactive) | 32.9 µM (inactive) | 26.9 µM (inactive) | > 100 µM (inactive) | 46.1 µM (inactive) | 30.2 µM (inactive) | 48.2 µM (inactive) | 33.8 µM (inactive) | 31.6 | 36.5 µM (inactive) | > 100 µM (inactive) | 43.7 µM (inactive) | 97.3 µM (inactive) | 24.6 µM (inactive) | 41.6 µM (inactive) | 44.9 µM (inactive) | 76 µM (inactive)
2 | COc1cc2nc(-c3cccs3)oc(=O)c2cc1OC | > 100 µM (inactive) | > 100 µM (inactive) | > 100 µM (inactive) | 61.7 µM (inactive) | > 100 µM (inactive) | > 100 µM (inactive) | > 100 µM (inactive) | > 100 µM (inactive) | 97.9 µM (inactive) | > 100 µM (inactive) | > 100 µM (inactive) | > 100 | > 100 µM (inactive) | 74.8 µM (inactive) | 51.2 µM (inactive) | > 100 µM (inactive) | > 100 µM (inactive) | 86.5 µM (inactive) | 94 µM (inactive) | > 100 µM (inactive)
3 | Nc1ncnc2c1nc(Cl)n2[C@@H]1O[C@@H]2COP(=O)(O)O[C@H]2[C@H]1O [TOCLADESINE] | 75.5 µM (inactive) | 10.6 µM (inactive) | 152 µM (inactive) | 32 µM (inactive) | 3.48 µM (inactive) | 3.61 µM (inactive) | 27.7 µM (inactive) | 12.2 µM (inactive) | 16.5 µM (inactive) | 22.8 µM (inactive) | 4.7 µM (inactive) | 6.7 | 10 µM (inactive) | 21.5 µM (inactive) | 6.67 µM (inactive) | 15.1 µM (inactive) | 42.6 µM (inactive) | 3.01 µM (inactive) | 8.85 µM (inactive) | 67.6 µM (inactive)
4 | CC(C)OC(=O)OCSc1ccccc1/N=C/c1cccc([N+](=O)[O-])c1 | > 10 µM (inactive) | > 10 µM (inactive) | > 10 µM (inactive) | > 10 µM (inactive) | > 10 µM (inactive) | > 10 µM (inactive) | > 10 µM (inactive) | > 10 µM (inactive) | > 10 µM (inactive) | > 10 µM (inactive) | > 10 µM (inactive) | > 10 | > 10 µM (inactive) | > 10 µM (inactive) | > 10 µM (inactive) | > 10 µM (inactive) | > 10 µM (inactive) | > 10 µM (inactive) | > 10 µM (inactive) | > 10 µM (inactive)
5 | CC(CN1c2ccccc2Sc2ccccc21)N(C)C (stereo not drawn) [PROMETHAZINE HYDROCHLORIDE] | 20.8 µM (inactive) | 18.3 µM (inactive) | 21.1 µM (inactive) | 17.5 µM (inactive) | 20.3 µM (inactive) | 22.7 µM (inactive) | 18.2 µM (inactive) | 17.1 µM (inactive) | 21.8 µM (inactive) | 20 µM (inactive) | 21.8 µM (inactive) | 17.5 | 14.1 µM (inactive) | 17.9 µM (inactive) | 15.8 µM (inactive) |  | 23.9 µM (inactive) | 15.5 µM (inactive) | 14.8 µM (inactive) | 19.6 µM (inactive)
6 | N=C(N)N/N=C\c1c(-c2cccc([N+](=O)[O-])c2)nc2sc(Cl)cn12 | 2.32 µM (inactive) |  | 24.4 µM (inactive) | 3.06 µM (inactive) | 1.26 µM (inactive) | 2 µM (inactive) | 3.91 µM (inactive) | 3.16 µM (inactive) | 2.75 µM (inactive) | 2.84 µM (inactive) | 0.61 µM (active) | 4.07 | 1.93 µM (inactive) | 2.74 µM (inactive) | > 100 µM (inactive) | 2.38 µM (inactive) | 2.29 µM (inactive) |  | 3.27 µM (inactive) | 27.4 µM (inactive)
7 | C/C(=N\Nc1ccccc1Br)c1cccc(/C(C)=N/Nc2ccccc2Br)n1 | 52.6 µM (inactive) |  | > 100 µM (inactive) | 59 µM (inactive) | > 100 µM (inactive) | > 100 µM (inactive) | > 100 µM (inactive) | 81.5 µM (inactive) | > 100 µM (inactive) | > 100 µM (inactive) | > 100 µM (inactive) | > 100 | 68.2 µM (inactive) | 43.4 µM (inactive) | > 100 µM (inactive) | 69.7 µM (inactive) | > 100 µM (inactive) | > 100 µM (inactive) | 84.5 µM (inactive) | 45.9 µM (inactive)
8 | CCOC(=O)C1=[N+]([O-])OC2=C(O)CCCC21 (stereo not drawn) | > 100 µM (inactive) | > 100 µM (inactive) | > 100 µM (inactive) | > 100 µM (inactive) | > 100 µM (inactive) |  | > 100 µM (inactive) | > 100 µM (inactive) | > 100 µM (inactive) | > 100 µM (inactive) | > 100 µM (inactive) | > 100 | > 100 µM (inactive) | > 100 µM (inactive) | > 100 µM (inactive) | > 100 µM (inactive) | > 100 µM (inactive) | > 100 µM (inactive) | > 100 µM (inactive) | > 100 µM (inactive)
9 | C#C[C@]1(O)CC[C@H]2[C@@H]3CCC4=C/C(=N/OCCN(C)C)CC[C@]4(C)[C@H]3CC[C@@]21C | 52 µM (inactive) | 40.1 µM (inactive) | 13.2 µM (inactive) | 49.5 µM (inactive) | 16.3 µM (inactive) |  | 56.8 µM (inactive) | 52.8 µM (inactive) | 36.1 µM (inactive) | 31.7 µM (inactive) | 12.1 µM (inactive) | 36.1 | 26.7 µM (inactive) | 39.9 µM (inactive) | 41.7 µM (inactive) | > 100 µM (inactive) | 52.5 µM (inactive) | 25.6 µM (inactive) | 29.2 µM (inactive) | 41.4 µM (inactive)
10 | Cc1ccc(C(=O)C2C=C(c3ccc(C)cc3)SC3C=CCC32)cc1 (stereo not drawn) | 15 µM (inactive) | 25.2 µM (inactive) | 15.5 µM (inactive) |  | 13.6 µM (inactive) | 8.95 µM (inactive) | 18.4 µM (inactive) | 17.8 µM (inactive) | 24.2 µM (inactive) | 22.9 µM (inactive) | 12.6 µM (inactive) | 21.6 | 22.1 µM (inactive) | 25.1 µM (inactive) | 18.5 µM (inactive) | 25.3 µM (inactive) | 21.7 µM (inactive) | 13.5 µM (inactive) | 19.5 µM (inactive) | 24.7 µM (inactive)
11 | O=c1cc(-c2ccccc2F)[nH]c2ccc(N3CCCC3)cc12 | 0.0955 µM (active) | > 100 µM (inactive) | 0.0419 µM (active) | 0.0363 µM (active) | 0.0461 µM (active) | > 100 µM (inactive) | 0.1 µM (active) |  | 0.00155 µM (active) | 0.0504 µM (active) | 0.498 µM (active) | 0.033 | 0.0557 µM (active) | 0.00122 µM (active) | 0.0352 µM (active) | 0.237 µM (active) | 0.1 µM (active) |  | 0.0442 µM (active) | 0.0215 µM (active)
12 | Nc1c2c(nc3cc(F)c(F)cc13)CCC2 | 50.2 µM (inactive) | 62.1 µM (inactive) | 42.7 µM (inactive) | 58.5 µM (inactive) |  | 2.82 µM (inactive) | 49.9 µM (inactive) | 38.3 µM (inactive) | 99.5 µM (inactive) | 42.2 µM (inactive) | 24.2 µM (inactive) | 45.4 | 43.5 µM (inactive) | 56.1 µM (inactive) | 60.1 µM (inactive) | 26.4 µM (inactive) | 44.4 µM (inactive) | 38 µM (inactive) | 45.6 µM (inactive) | 24.7 µM (inactive)
13 | CCOC(CN(C)C(=O)Nc1ccc(Cl)c(Cl)c1)OCC | > 10 µM (inactive) | > 10 µM (inactive) | > 10 µM (inactive) | > 10 µM (inactive) | > 10 µM (inactive) | > 10 µM (inactive) |  | > 10 µM (inactive) | > 10 µM (inactive) | > 10 µM (inactive) | > 10 µM (inactive) | > 10 | > 10 µM (inactive) | > 10 µM (inactive) | > 10 µM (inactive) | > 10 µM (inactive) | > 10 µM (inactive) | > 10 µM (inactive) | > 10 µM (inactive) | > 10 µM (inactive)
14 | C/C(=N\Nc1nc2ccccc2s1)c1cc2ccccc2cn1 | 4.89 µM (inactive) | 3.15 µM (inactive) | 3.18 µM (inactive) | 7.43 µM (inactive) | 2.81 µM (inactive) |  | 4.38 µM (inactive) | 8.63 µM (inactive) | 3.21 µM (inactive) | 3.66 µM (inactive) | 2.41 µM (inactive) | 0.424 | 1.52 µM (inactive) | 4.88 µM (inactive) | 3.25 µM (inactive) | 3.94 µM (inactive) | 3.55 µM (inactive) | 3.03 µM (inactive) | 2.52 µM (inactive) | 10.9 µM (inactive)
